Assay results reported in PubChem BioAssay (NCI).
Values joined by “and” are separate entries in the source; they are usually repeats but may differ in a detail not shown here. Equal values may be shown once.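 All cell lines were grown in 96-well plates and treated with compound for 48 hours. Abbreviation: GI50, concentration required for 50% inhibition of growth. The concentration for full growth arrest is given as TGI.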

Tested on: MDA-MB-468 breast
Assay: growth of human tumour cells (NCI), 48 h

Row | Compound | GI50 | TGI
1 | CN(C)S(=O)(=O)c1cccc(-c2nc3sc4c(c3c(=O)[nH]2)CCCC4)c1 | 8.92 µM | > 100 µM
2 | O=C(Nn1c2c(sc1=NC1CC1)C(=O)c1ccccc1C2=O)c1cc2ccc1CCc1ccc(cc1)CC2 | 2.55 µM | 7.32 µM
3 | CC(C)(C)n1cc(-c2ccnc(NCCCNS(=O)(=O)c3ccc(Cl)cc3)c2)c(-c2cccc(O)c2)n1 | 1.8 µM | 4.16 µM
4 | CCN1CCN(c2nc(C)cc(N(CCCNc3ccnc4cc(Cl)ccc34)Cc3ccco3)n2)CC1 | 2.2 µM | 5.28 µM
5 | Cc1[nH]ccc2cc3nc4ccccc4c3cc12 | 1.91 µM | 9.09 µM
6 | O=c1[nH]cc(F)c(=O)[nH]1 | – | > 100 µM and 1560 µM
7 | O=C(NNc1nc2cc(F)cc(F)c2n2cccc12)c1cccnn1 | 0.638 µM and 0.219 µM | 2.43 µM and 1.47 µM
8 | c1ccc([P+](CCC[P+](c2ccccc2)(c2ccccc2)c2ccccc2)(c2ccccc2)c2ccccc2)cc1 | 1.72 µM | 26.3 µM
9 | COc1cc(C2c3cc4c(cc3OC(N3CCOCC3)C2C)OCO4)cc(OC)c1OC (stereo unspecified) | 4.15 µM | > 100 µM
10 | CN(C)CCN1C(=O)c2cccc3c(-c4ccc5ncn(C6CCCCC6)c5c4)ccc(c23)C1=O | 1.74 µM | 4.33 µM
11 | CC(=O)O[C@@H]1C(=O)N(c2cnccn2)[C@H]1c1ccccc1[N+](=O)[O-] | 0.376 µM | 4.05 µM
12 | ClC1=C(Cl)C(Cl)=C(Cl)C1=Cc1ccc(Cl)cc1Cl | 0.257 µM | 0.728 µM
13 | Clc1ccc2c(NCCN3CCN(c4ccnc(N5CCCC5)n4)CC3)ccnc2c1 | 2.05 µM | 5.09 µM
14 | O=C(Nc1ccc([N+](=O)[O-])cc1)c1cc2ccccc2cc1O | 0.898 µM | 4.74 µM
15 | COc1ccc(Cn2cc3c(c2-c2ccccc2)CCc2cncnc2-3)cc1 | 3.25 µM | 11 µM
16 | Cc1ccc2oc(=O)cc(C3c4ccc([nH]4)C(c4cc(=O)oc5ccc(C)cc45)c4ccc([nH]4)C(c4cc(=O)oc5ccc(C)cc45)c4ccc([nH]4)C(c4cc(=O)oc5ccc(C)cc45)c4ccc3[nH]4)c2c1 (stereo unspecified) | 0.0344 µM | 1.86 µM
17 | CCCCc1oc2ccccc2c1C(=O)c1cc(I)c(OCCN(CC)CC)c(I)c1 | 1.49 µM | 3.12 µM
18 | Cc1cc(Cl)ccc1Nc1nc(C(F)(F)F)ccc1C(=O)N/N=C/c1ccc(N(C)C)cc1 | 0.442 µM | 4.67 µM
19 | Cc1sc2c(c1C)C(c1ccc(Cl)cc1)=N[C@@H](CC(=O)Nc1ccc(O)cc1)c1nnc(C)n1-2 | 0.212 µM | 17.8 µM
20 | C#CCOc1cccc(Nc2ncnc3c2ncn3C2CCN(C(=O)CCl)C2)c1 (stereo unspecified) | 19.8 µM | 41 µM

Row | Compound | GI50 | TGI
21 | COc1cc(C(=O)/C=C/c2c(-c3cccs3)nc3ccccn23)cc(OC)c1OC | 1.72 µM | 3.4 µM
22 | COc1cc2c(cc1-c1c(C)noc1C)ncc1[nH]c(=O)n([C@H](C)c3ccccn3)c12 | 0.445 µM | > 36.8 µM
23 | Cc1ccc(C(=O)Nc2ccccc2C(=O)N/N=C(\c2ccccc2)c2ccccn2)cc1 | 0.266 µM | 2.94 µM
24 | CCOC(=O)c1cn2ncnc(Oc3ccc(NC(=O)NCCN(CC)CC)c(Cl)c3)c2c1C | 9.57 µM | 29 µM
25 | O=C1/C(=C/c2ccc(C(F)(F)F)cc2)COc2ccc(O)cc21 | 1.53 µM | 3.04 µM
26 | CCCCCCCCCCC(CN(CC)CC)C(O)c1ccccc1 (stereo unspecified) | 1.52 µM | 3.21 µM
27 | COc1cccc2cc(N(C)c3nc(C)nc4ccsc34)ccc12 | < 0.01 µM | –
28 | C=C1C(=O)O[C@H]2[C@H]1CC/C(COC(=O)NCc1cccc(OC)c1)=C\CC[C@@]1(C)O[C@@H]21 | 1.29 µM | 3.84 µM
29 | c1cc(-c2cnn3nc(N4CCOCC4)ccc23)nc(NC2CC2)n1 | 6.8 µM | 21 µM
30 | CO[C@@]12[C@H](COC(N)=O)C3=C(C(=O)C(C)=C(N)C3=O)N1C[C@@H]1N[C@@H]12 | 0.241 µM and 1.01 µM | 1.3 µM and 4.9 µM
31 | CO[C@H]1/C=C/C[C@H](C)[C@@H](C)S(=O)(=O)NC(=O)c2ccc3c(c2)N(C[C@@H]2CC[C@H]21)C[C@@]1(CCCc2cc(Cl)ccc21)CO3 | 0.166 µM | 0.55 µM
32 | COc1ccc(-c2cc3nccn3c(Nc3ncccc3C(N)=O)n2)cc1OC | > 100 µM | > 100 µM
33 | CC1(C)CC(O)CCCCCCOc2c(CN)cccc2NC(=O)c2nc(cnc2N)-c2ccc(cc2)S1(=O)=O (stereo unspecified) | 0.49 µM | 2.45 µM
34 | C=C(C=O)[C@@H]1CC[C@]2(C(=O)O)CC[C@]3(C)C(CC[C@@H]4[C@@](C)(CCC#N)[C@H](C(=C)C=O)CC[C@]43C)[C@@H]12 (stereo partly specified) | 2.31 µM | 5.69 µM
35 | O=C1C(Cl)=C(Nc2ccc3c(c2NC2=C(Cl)C(=O)c4ccccc4C2=O)C(=O)c2ccccc2C3=O)C(=O)c2ccccc21 | 1.35 µM | 3.85 µM
36 | C[C@@H]1CCC2[C@@H](C)[C@H](OC(=O)CCC(=O)NCCNC(=O)Cc3cc(=O)oc4cc(N(C)C)ccc34)O[C@@H]3O[C@]4(C)CC[C@@H]1C23OO4 (stereo partly specified) | 13.4 µM | 59.4 µM
37 | COc1cc(/C=N/O)nc(-c2ccccn2)c1 | 0.307 µM | 1.7 µM
38 | O=C(Nc1cccc(Cl)c1)Nc1nc2ccc([N+](=O)[O-])cc2o1 | 2.26 µM | 5.73 µM
39 | CN1CCN(c2ccc([N+](=O)[O-])c3no[n+]([O-])c23)CC1 | 0.203 µM | 0.821 µM
